In brackets after ≈: the same amount, converted by molar mass. Read-outs that look alike come from different tables or passages of the source.
Legend:
Type in all cases: cell-based
[1] = test system: HCT-116 colorectal cancer cell line; experiment: CCK-8 proliferation inhibition; conditions: concentration of 30 μM, 72 hours, CCK-8; for inhibition at 30 µM: Homo sapiens, HCT-116, 72 h, read-out: HCT116 inhibition rate/%; for HCT116 inhibition rate/%: 30 µM
Summary of the method: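 Cells were plated overnight at 2000 cells/well, then compound in culture medium was added at a range of final concentrations. After 72 hours in a CO2 incubator, medium was replaced with 1:10 CCK-8 solution for the read-out.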

[2] = test system: BEL-7402 liver cancer cell line; experiment: CCK-8 proliferation inhibition; conditions: concentration of 30 μM; for inhibition at 30 µM: Homo sapiens, Bel-7402, 72 h; for Inhibition of proliferation, Liver cancer BEL-7402: 72 hours, 30 µM
Summary of the method: (§1)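 Plating at 2000 cells/well, then incubation overnight at 37° C. Next, a range of compound concentrations for 72 hours (control 1‰ DMSO). Finally, medium decanted and CCK-8 diluted 1:10 added.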

[3] = test system: A549 lung cancer cell line; experiment: CCK-8 proliferation inhibition; conditions: concentration of 30 μM; for inhibition at 30 µM: Homo sapiens, A549, 72 h
Summary of the method: as §1

[4] = test system: MGC-803 gastric cancer cell line; experiment: CCK-8 proliferation inhibition; conditions: Homo sapiens, MGC-803, 72 h, concentration of 30 μM
Summary of the method: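 Proliferation was measured with 1:10 diluted CCK-8 after a 72-hour incubation with the inhibitors at various final concentrations, using 1‰ DMSO as the control. Cells were plated at 2000 per well. Culture media contained 10% newborn bovine serum: 1640 for Jurkat and MGC-803, F12 for PC3, DMEM high glucose for MCF-7.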

[5] = test system: Enterococcus faecium (EFM); experiment: MIC, two-fold agar dilution (CLSI), clinical isolates
Summary of the method: (§2)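 CLSI two-fold agar dilution; MIC of test samples read per tested strain.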

[6] = test system: methicillin-sensitive Staphylococcus epidermidis (MSSE); experiment: as above
Summary of the method: as §2

[7] = test system: Enterococcus faecalis (EFA); experiment: as above
Summary of the method: as §2

[8] = test system: methicillin-sensitive Staphylococcus aureus (MSSA); experiment: as above
Summary of the method: as §2

[9] = test system: methicillin-resistant Staphylococcus aureus (MRSA); experiment: as above
Summary of the method: as §2

[10] = test system: Escherichia coli (including ESBLs, non-ESBLs); experiment: as above
Summary of the method: as §2

[11] = test system: methicillin-resistant Staphylococcus epidermidis (MRSE); experiment: as above
Summary of the method: as §2

[12] = test system: Streptococcus pneoumoniae (SPN); experiment: as above
Summary of the method: as §2

[13] = test system: Moraxella catarrhalis (BCA); experiment: as above; conditions: for MIC: Moraxella catarrhalis
Summary of the method: as §2

## CCCC[C@H](CN(O)C=O)C(=O)N1CC2(CC2)C[C@H]1C(=O)Nc1nccs1 [Example 22]
[1]
  inhibition at 30 µM: > 50%
  HCT116 inhibition rate/%: 52%
[2]
  inhibition at 30 µM: > 50%
  Inhibition of proliferation, Liver cancer BEL-7402: 51%
[3]
  inhibition at 30 µM: 21%
[4]
  inhibition at 30 µM: 14%
[5]; strain EFM 15-1
  MIC (anti-bacterial activity): 0.5 µg/mL (≈ 1.27 µM)
[5]; strain EFM 15-2
  MIC (anti-bacterial activity): 2 µg/mL (≈ 5.07 µM)
[5]; strain EFM 15-3
  MIC (anti-bacterial activity): 0.25 µg/mL (≈ 0.634 µM)
[5]; strain EFM 15-4
  MIC (anti-bacterial activity): 0.5 µg/mL (≈ 1.27 µM)
[5]; strain EFM 15-5
  MIC (anti-bacterial activity): 0.25 µg/mL (≈ 0.634 µM)
[5]; strain EFM 15-6
  MIC (anti-bacterial activity): 0.5 µg/mL (≈ 1.27 µM)
[6]; strain MSSE 15-3
  MIC (anti-bacterial activity): 0.06 µg/mL (≈ 0.152 µM)
[6]; strain MSSE 15-4
  MIC (anti-bacterial activity): 0.03 µg/mL (≈ 0.076 µM)
[6]; strain MSSE 15-5
  MIC (anti-bacterial activity): 0.03 µg/mL (≈ 0.076 µM)
[6]; strain MSSE 15-6
  MIC (anti-bacterial activity): 0.03 µg/mL (≈ 0.076 µM)
[7]; strain EFA 15-1
  MIC (anti-bacterial activity): 2 µg/mL (≈ 5.07 µM)
[7]; strain EFA 15-2
  MIC (anti-bacterial activity): 2 µg/mL (≈ 5.07 µM)
[7]; strain EFA 15-3
  MIC (anti-bacterial activity): 1 µg/mL (≈ 2.53 µM)
[7]; strain EFA 15-4
  MIC (anti-bacterial activity): 2 µg/mL (≈ 5.07 µM)
[7]; strain EFA 15-5
  MIC (anti-bacterial activity): 2 µg/mL (≈ 5.07 µM)
[7]; strain EFA 15-6
  MIC (anti-bacterial activity): 2 µg/mL (≈ 5.07 µM)
[7]; strain EFA 15-9
  MIC (anti-bacterial activity): 2 µg/mL (≈ 5.07 µM)
[8]; strain MSSA 15-3
  MIC (anti-bacterial activity): 0.06 µg/mL (≈ 0.152 µM)
[8]; strain MSSA 15-4
  MIC (anti-bacterial activity): 0.06 µg/mL (≈ 0.152 µM)
[8]; strain MSSA 15-5
  MIC (anti-bacterial activity): 0.03 µg/mL (≈ 0.076 µM)
[8]; strain MSSA 15-6
  MIC (anti-bacterial activity): 0.06 µg/mL (≈ 0.152 µM)
[9]; strain MRSA 15-1
  MIC (anti-bacterial activity): 0.06 µg/mL (≈ 0.152 µM)
[9]; strain MRSA 15-2
  MIC (anti-bacterial activity): 0.25 µg/mL (≈ 0.634 µM)
[9]; strain MRSA 15-3
  MIC (anti-bacterial activity): 0.06 µg/mL (≈ 0.152 µM)
[9]; strain MRSA 15-4
  MIC (anti-bacterial activity): 0.25 µg/mL (≈ 0.634 µM)
[10]; strain ECO+ 15-1
  MIC (anti-bacterial activity): 16 µg/mL (≈ 40.6 µM)
[10]; strain ECO+ 15-2
  MIC (anti-bacterial activity): 64 µg/mL (≈ 162 µM)
[10]; strain ECO+ 15-3
  MIC (anti-bacterial activity): 32 µg/mL (≈ 81.1 µM)
[10]; strain ECO+ 15-4
  MIC (anti-bacterial activity): 32 µg/mL (≈ 81.1 µM)
[10]; strain ECO− 15-1
  MIC (anti-bacterial activity): 32 µg/mL (≈ 81.1 µM)
[10]; strain ECO− 15-2
  MIC (anti-bacterial activity): 64 µg/mL (≈ 162 µM)
[10]; strain ECO− 15-3
  MIC (anti-bacterial activity): 64 µg/mL (≈ 162 µM)
[10]; strain ECO− 15-4
  MIC (anti-bacterial activity): 64 µg/mL (≈ 162 µM)
[11]; strain MRSE 15-1
  MIC (anti-bacterial activity): 0.03 µg/mL (≈ 0.076 µM)
[11]; strain MRSE 15-2
  MIC (anti-bacterial activity): 0.06 µg/mL (≈ 0.152 µM)
[11]; strain MRSE 15-3
  MIC (anti-bacterial activity): 0.125 µg/mL (≈ 0.317 µM)
[11]; strain MRSE 15-7
  MIC (anti-bacterial activity): 0.125 µg/mL (≈ 0.317 µM)
[12]; strain SPN 16-2
  MIC (anti-bacterial activity): 2 µg/mL (≈ 5.07 µM)
[12]; strain SPN 16-4
  MIC (anti-bacterial activity): 0.5 µg/mL (≈ 1.27 µM)
[13]; 7 clinical isolates, range over strains, read-out: Moraxella catarrhalis (n = 7) MIC
  MIC: 0.06 to 0.5 µg/mL (≈ 0.152 to 1.27 µM)
[13]; lowest MIC reached, read-out: minimum inhibitory concentration against Moraxella catarrhalis, as low as
  MIC: ≥ 0.06 µg/mL
[13]; strain BCA 14-1
  MIC (anti-bacterial activity): 0.5 µg/mL (≈ 1.27 µM)
[13]; strain BCA 14-4
  MIC (anti-bacterial activity): 0.25 µg/mL (≈ 0.634 µM)
[13]; strain BCA 14-5
  MIC (anti-bacterial activity): 0.06 µg/mL (≈ 0.152 µM)
[13]; strain BCA 14-6
  MIC (anti-bacterial activity): 0.06 µg/mL (≈ 0.152 µM)
[13]; strain BCA 14-7
  MIC (anti-bacterial activity): 0.125 µg/mL (≈ 0.317 µM)
[13]; strain BCA 14-8
  MIC (anti-bacterial activity): 0.5 µg/mL (≈ 1.27 µM)
[13]; strain BCA 14-10
  MIC (anti-bacterial activity): 0.125 µg/mL (≈ 0.317 µM)

## O=C(C[C@@H](CC1CCCC1)C(=O)N1CC2(CC2)C[C@H]1C(=O)Nc1ccno1)NO [Example 70, (S)-5-((R)-2-(cyclopentylmethyl)-4-(hydroxyamino)-4-oxobutyl)-N-(isoxazol-5-yl)-5-spiro[2.4]heptane-6-carboxamide]
[1]
  inhibition at 30 µM: > 50%
  HCT116 inhibition rate/%: 64%
[2]
  inhibition at 30 µM: > 50%
  Inhibition of proliferation, Liver cancer BEL-7402: 62%
[3]
  inhibition at 30 µM: > 50%
[3]; 72 hours, 30 µM
  Inhibition of proliferation, Lung cancer A549: 54%
[4]
  inhibition at 30 µM: 50%
[5]; strain EFM 15-1
  Anti-bacterial activity (MIC): 32 µg/mL
[5]; strain EFM 15-2
  Anti-bacterial activity (MIC): 32 µg/mL
[5]; strain EFM 15-3
  Anti-bacterial activity (MIC): 32 µg/mL
[5]; strain EFM 15-4
  Anti-bacterial activity (MIC): 1 µg/mL
[5]; strain EFM 15-5
  Anti-bacterial activity (MIC): 0.2 µg/mL
[5]; strain EFM 15-6
  Anti-bacterial activity (MIC): 2 µg/mL
[6]; clinical isolate MSSE 15-3
  Anti-bacterial activity (MIC), strain MSSE 15-3: 0.5 µg/mL
[6]; clinical isolate MSSE 15-4
  Anti-bacterial activity (MIC), strain MSSE 15-4: 1 µg/mL
[6]; clinical isolate MSSE 15-5
  Anti-bacterial activity (MIC), strain MSSE 15-5: 1 µg/mL
[6]; clinical isolate MSSE 15-6
  Anti-bacterial activity (MIC), strain MSSE 15-6: 0.25 µg/mL
[7]; strain EFA 15-1
  Anti-bacterial activity (MIC): 32 µg/mL
[7]; strain EFA 15-2
  Anti-bacterial activity (MIC): 32 µg/mL
[7]; strain EFA 15-3
  Anti-bacterial activity (MIC): 32 µg/mL
[7]; strain EFA 15-4
  Anti-bacterial activity (MIC): 32 µg/mL
[7]; strain EFA 15-5
  Anti-bacterial activity (MIC): 32 µg/mL
[7]; strain EFA 15-6
  Anti-bacterial activity (MIC): 32 µg/mL
[7]; strain EFA 15-9
  Anti-bacterial activity (MIC): 1 µg/mL
[8]; clinical isolate MSSA 15-3
  Anti-bacterial activity (MIC), strain MSSA 15-3: 2 µg/mL
[8]; clinical isolate MSSA 15-4
  Anti-bacterial activity (MIC), strain MSSA 15-4: 0.5 µg/mL
[8]; clinical isolate MSSA 15-5
  Anti-bacterial activity (MIC), strain MSSA 15-5: 0.25 µg/mL
[8]; clinical isolate MSSA 15-6
  Anti-bacterial activity (MIC), strain MSSA 15-6: 16 µg/mL
[9]; clinical isolate MRSA 15-1
  Anti-bacterial activity (MIC), strain MRSA 15-1: 0.5 µg/mL
[9]; clinical isolate MRSA 15-2
  Anti-bacterial activity (MIC), strain MRSA 15-2: 1 µg/mL
[9]; clinical isolate MRSA 15-3
  Anti-bacterial activity (MIC), strain MRSA 15-3: 0.5 µg/mL
[9]; clinical isolate MRSA 15-4
  Anti-bacterial activity (MIC), strain MRSA 15-4: 1 µg/mL
[10]; clinical isolate ECO+ 15-1
  Anti-bacterial activity (MIC), strain ECO+ 15-1: 16 µg/mL
[10]; clinical isolate ECO+ 15-2
  Anti-bacterial activity (MIC), strain ECO+ 15-2: 32 µg/mL
[10]; clinical isolate ECO+ 15-3
  Anti-bacterial activity (MIC), strain ECO+ 15-3: 32 µg/mL
[10]; clinical isolate ECO+ 15-4
  Anti-bacterial activity (MIC), strain ECO+ 15-4: 16 µg/mL
[10]; clinical isolate ECO− 15-1
  Anti-bacterial activity (MIC), strain ECO− 15-1: 16 µg/mL
[10]; clinical isolate ECO− 15-2
  Anti-bacterial activity (MIC), strain ECO− 15-2: 32 µg/mL
[10]; clinical isolate ECO− 15-3
  Anti-bacterial activity (MIC), strain ECO− 15-3: 32 µg/mL
[10]; clinical isolate ECO− 15-4
  Anti-bacterial activity (MIC), strain ECO− 15-4: 16 µg/mL
[11]; clinical isolate MRSE 15-1
  Anti-bacterial activity (MIC), strain MRSE 15-1: 0.5 µg/mL
[11]; clinical isolate MRSE 15-2
  Anti-bacterial activity (MIC), strain MRSE 15-2: 2 µg/mL
[11]; clinical isolate MRSE 15-3
  Anti-bacterial activity (MIC), strain MRSE 15-3: 2 µg/mL
[11]; clinical isolate MRSE 15-7
  Anti-bacterial activity (MIC), strain MRSE 15-7: 2 µg/mL
[12]; strain SPN 16-2
  Anti-bacterial activity (MIC): 0.5 µg/mL
[12]; strain SPN 16-4
  Anti-bacterial activity (MIC): 0.25 µg/mL
[13]; strain BCA 14-1
  Anti-bacterial activity (MIC): 1 µg/mL
[13]; strain BCA 14-4
  Anti-bacterial activity (MIC): 2 µg/mL
[13]; strain BCA 14-5
  Anti-bacterial activity (MIC): 2 µg/mL
[13]; strain BCA 14-6
  Anti-bacterial activity (MIC): 2 µg/mL
[13]; strain BCA 14-7
  Anti-bacterial activity (MIC): 4 µg/mL
[13]; strain BCA 14-8
  Anti-bacterial activity (MIC): 1 µg/mL
[13]; strain BCA 14-10
  Anti-bacterial activity (MIC): 1 µg/mL
